Measured values published in patent US20210338656A1, “IMMUNOSTIMULATORY AGENTS IN COMBINATION WITH ANGIOGENESIS INHIBITORS” (Alkermes Pharma Ireland Limited, priority 2020, published 2021).

Tested on: gene expression in MC38 tumors
Experiment: RNA-Seq gene expression in MC38 tumors, Day 10
Type: in vivo, mouse
Description: On Day 10 spleens and tumors were collected and weighed from all animals in Groups 7 through 12 and weighed prior to processing. Tissues from four animals in each group were processed to single cell suspensions for flow cytometry analysis at CRL-NC (described below). Tissues from the remaining six animals in each group were preserved in RNAlater, stored at −80° C.
Tumors and spleens were dissected on the appropriate day of the study and were weighed and immediately placed in RNAlater Stabilizing Reagent to preserve the tissue and stored overnight at 4 deg C. The following day, the samples were removed from RNA later and snap frozen and placed at −80 deg C.
Unless otherwise indicated, everything was done on ice and the materials were prechilled on ice. The tissues were homogenized in TRIzol in Precellys tissue grinding tubes. After homogenization, the TRIzol solutions were transferred to 1.5 ml tubes and spun for 5 min at 12,000×g to eliminate the insoluble material. The TRIzol solutions were then transferred to Phasemaker tubes. Chloroform was added, the tubes were capped, and shaken vigorously for 15 seconds. The samples were then incubated at room temperature for 2-15 minutes and centrifuged at 12,000×g for 5 minutes. The upper, aqueous phase was then transferred to a new tube and an equal volume of 70% ethanol was added and it was vortexed. The liquid was then transferred to Qiagen RNeasy columns and centrifuged at 8000×g. DNAse was added to each tube to eliminate any residual DNA. The columns were then washed and eluted as directed by the kit. The RNA concentrations were determined using a Qubit.
Libraries were prepared for sequencing by using the Mouse Transcriptome Ion AmpliSeq Library Preparation on the Ion Chef System as directed by the manufacturer. Eight samples of purified RNA and 8 unique IonCode molecular barcodes were added to a 96 well plate and were prepared at a time. After the libraries were prepared, they were templated and loaded onto an Ion Torrent 540 chip using the Ion 540 Chef Kit from ThermoFisher. The 540 chips were then loaded into a Gene Studio S5 sequencer and sequenced.
Raw sequencing data was processed by Torrent Suite (v5.8.0) software that came with the Gene Studio sequencer (ThermoFisher). For each sample, this program summarized gene expression in a CHP file. The CHP files were then loaded into the Transcriptome Analysis Console (TAC) program (ThermoFisher).

[1] = T cell signaling gene, MC38 tumors Day 10 RNA-Seq, lucitanib 10 mg/kg po, SEQ ID NO. 2 3 mg/kg sc
[2] = Type I/II interferon pathway gene, MC38 tumors Day 10 RNA-Seq, lucitanib 10 mg/kg po, SEQ ID NO. 2 3 mg/kg sc
[3] = antigen presentation gene, MC38 tumors Day 10 RNA-Seq, lucitanib 10 mg/kg po, SEQ ID NO. 2 3 mg/kg sc

In the case of `CNC(=O)c1cccc2cc(Oc3ccnc4cc(OCC5(N)CC5)c(OC)cc34)ccc12` [Lucitanib, 6-(7-((1-Aminocyclopropyl)-methoxy)-6-methoxyquinolin-4-yloxy)-N-methyl-1-naphthamide], the “Cd3e mean expression value relative to vehicle group” value [1] is reported as 2.49, the “Cd4 mean expression value relative to vehicle group” value [1] is reported as 2.67 and the “Cd8a mean expression value relative to vehicle group” value [1] is reported as 2.03. For the same compound, the “Cd8b1 mean expression value relative to vehicle group” value [1] was 3.57, the “Cd28 mean expression value relative to vehicle group” value [1] was 5.49 and the “Cd247 mean expression value relative to vehicle group” value [1] was 1.44. For the same compound, the “Cd3d mean expression value relative to vehicle group” value [1] was 3.14, the “Ctla4 mean expression value relative to vehicle group” value [1] was 4.10 and the “H2-Aa mean expression value relative to vehicle group” value [1] was 1.59. For the same compound, the “H2-Ab1 mean expression value relative to vehicle group” value [1] was 1.12, the “H2-Eb1 mean expression value relative to vehicle group” value [1] was 1.66 and the “Icos mean expression value relative to vehicle group” value [1] was 6.03. The “Ifng mean expression value relative to vehicle group” value [1] was 2.74, the “Il2 mean expression value relative to vehicle group” value [1] was 0.60 and the “Lck mean expression value relative to vehicle group” value [1] was 1.36. For the same compound, the “Lcp2 mean expression value relative to vehicle group” value [1] was 0.40, the “Nfatc2 mean expression value relative to vehicle group” value [1] was 0.34 and the “Pdcd1 mean expression value relative to vehicle group” value [1] was 0.75. The “Ptpn22 mean expression value relative to vehicle group” value [1] was 1.16, the “Ptprc mean expression value relative to vehicle group” value [1] was 2.25 and the “Zap70 mean expression value relative to vehicle group” value [1] was 1.46. The “B2m mean expression value relative to vehicle group” value [2] was 0.32, the “Bst2 mean expression value relative to vehicle group” value [2] was 0.75 and the “Cd44 mean expression value relative to vehicle group” value [2] was −0.26. For the same compound, the “Ciita mean expression value relative to vehicle group” value [2] was 0.62, the “Fcgr1 mean expression value relative to vehicle group” value [2] was 1.56 and the “Gm10499 mean expression value relative to vehicle group” value [2] was 0.04. For the same compound, the “H2-Aa mean expression value relative to vehicle group” value [2] was 1.59, the “H2-Ab1 mean expression value relative to vehicle group” value [2] was 1.12 and the “H2-Eb1 mean expression value relative to vehicle group” value [2] was 1.66. The “H2-K1 mean expression value relative to vehicle group” value [2] was 0.26, the “H2-Q10 mean expression value relative to vehicle group” value [2] was 0.32 and the “Icam1 mean expression value relative to vehicle group” value [2] was 0.43. For the same compound, the “Ifi35 mean expression value relative to vehicle group” value [2] was 0.62, the “Ifit2 mean expression value relative to vehicle group” value [2] was 0.25 and the “Ifitm1 mean expression value relative to vehicle group” value [2] was 0.38. For the same compound, the “Ifna2 mean expression value relative to vehicle group” value [2] was 0, the “Ifnar1 mean expression value relative to vehicle group” value [2] was −0.01 and the “Ifnar2 mean expression value relative to vehicle group” value [2] was 0.39. The “Ifnb1 mean expression value relative to vehicle group” value [2] was 0.12, the “Ifng mean expression value relative to vehicle group” value [2] was 2.74 and the “Ifngr1 mean expression value relative to vehicle group” value [2] was 0.84. For the same compound, the “Irf1 mean expression value relative to vehicle group” value [2] was 0.3, the “Irf4 mean expression value relative to vehicle group” value [2] was 1.23 and the “Irf5 mean expression value relative to vehicle group” value [2] was 0.02. The “Irf8 mean expression value relative to vehicle group” value [2] was 0.38, the “Mx1 mean expression value relative to vehicle group” value [2] was 1.14 and the “Ncam1 mean expression value relative to vehicle group” value [2] was 0.14. The “Pml mean expression value relative to vehicle group” value [2] was 0.19, the “Ptpn6 mean expression value relative to vehicle group” value [2] was 0.25 and the “Socs3 mean expression value relative to vehicle group” value [2] was −0.24. The “Tyk2 mean expression value relative to vehicle group” value [2] was −0.16, the “Vcam1 mean expression value relative to vehicle group” value [2] was 0.52 and the “B2m mean expression value relative to vehicle group” value [3] was 0.32. The “Btk mean expression value relative to vehicle group” value [3] was 0.42, the “Cd14 mean expression value relative to vehicle group” value [3] was 0.26 and the “Cd36 mean expression value relative to vehicle group” value [3] was 4.37. For the same compound, the “Cd74 mean expression value relative to vehicle group” value [3] was 1.18, the “Ctsc mean expression value relative to vehicle group” value [3] was 0.36 and the “Ctss mean expression value relative to vehicle group” value [3] was 2.29. For the same compound, the “Cybb mean expression value relative to vehicle group” value [3] was 1.66, the “Fcgr1 mean expression value relative to vehicle group” value [3] was 1.56 and the “H2-Aa mean expression value relative to vehicle group” value [3] was 1.59. The “H2-Ab1 mean expression value relative to vehicle group” value [3] was 1.12, the “H2-DMa mean expression value relative to vehicle group” value [3] was 1.18 and the “H2-DMb2 mean expression value relative to vehicle group” value [3] was 0.84. For the same compound, the “H2-Ea-ps mean expression value relative to vehicle group” value [3] was 0, the “H2-Eb1 mean expression value relative to vehicle group” value [3] was 1.66 and the “H2-K1 mean expression value relative to vehicle group” value [3] was 0.26. The “H2-Ob mean expression value relative to vehicle group” value [3] was 2.19, the “H2-Q10 mean expression value relative to vehicle group” value [3] was 0.32 and the “Ly96 mean expression value relative to vehicle group” value [3] was 0.58. The “Ncf4 mean expression value relative to vehicle group” value [3] was 0.62, the “Psmb9 mean expression value relative to vehicle group” value [3] was 0.6 and the “Tap1 mean expression value relative to vehicle group” value [3] was 0.51. For the same compound, the “Tlr1 mean expression value relative to vehicle group” value [3] was 0.51, the “Tlr2 mean expression value relative to vehicle group” value [3] was 0.12 and the “Tlr4 mean expression value relative to vehicle group” value [3] was 1.1. For the same compound, the “Esm1 expression, a target of VEGF signaling” value (tumors) was “decrease” and the “expression of genes associated with cytotoxic immune cell function, T cell activation, and antigen presentation” value (tumors) was “Increased expression”.
